{
  "source": "patent US20240327459A1",
  "about": "“PEPTIDE FRAGMENTS FOR TREATMENT OF DIABETES” (Follicum AB, priority 2018, published 2024)",
  "key": {"INS-1E cells": {"test_system": "INS-1E cells", "test": "Insulin secretion by novel peptide analogues (Example 21, FIG. 16)", "type": "cell-based, rat", "details": "100 nM peptide, high glucose buffer, vs un-supplemented high glucose buffer", "method": "Materials and methods: Rat INS-1 β-cells (passages 60-70) were cultured at 37° C. and 5% CO2 in cRPMI media (RPMI 1640 supplemented with 10% fetal bovine serum, 50 IU/mL penicillin, 50 mg/L streptomycin, 10 mM HEPES, 2 mM L-glutamine, 1 mM sodium pyruvate, and 50 μM beta-mercaptoethanol) unless otherwise stated. INS-1 cells were seeded in 96-well plates (2×10^3 cells/well) in cRPMI medium and following overnight incubation, the cells were washed in PBS before pre-incubation for 120 min at 37° C. in Krebs-Ringer bicarbonate buffer, pH 7.4, supplemented with 10 mM HEPES, 0.1% bovine serum albumin and 2.8 mM glucose. Following pre-incubation, the buffer was exchanged with fresh Krebs-Ringer buffer as described above and supplemented with specific glucose concentrations and peptides for the individual experiments as described below. Immediately after 60 minutes incubation at 37° C., an aliquot of the buffer was removed and frozen for subsequent insulin ELIZA assay.\nIn order to correct for the variance between experiments, all values were normalized to, and expressed as percentage of the average value of the high glucose control in the individual experiments. The analogues were subsequently ranked according to performance (FIG. 16)."}, "isolated mouse islets": {"test_system": "isolated mouse islets", "test": "Insulin and glucagon secretion from isolated mouse islets (Example 12)", "type": "cell-based", "details": "100 nM", "method": "Twelve-week-old male C57/bl6 mice were euthanized with isoflurane and cervical dislocation. After clamping the hepatic ducts, 3 ml of 0.9 U/ml collagenase P was injected into the bile duct to inflate the pancreas. The pancreas was then removed and digested for 19 min at 37° C. The samples were vigorously shaken to disrupt the tissue. The digest was quickly transferred into ice cold Hank's Balanced Salts Solution with Ca^2+ and Mg^2+. The suspension was allowed to sit for 8 min to allow the islet to sink, and the islets were washed in the same manner four times. The islets were then handpicked and sorted according to size.\nFreshly isolated islets were seeded in groups of 5 in a 96-well plate and preincubated for 1 h at 37° C. in a Krebs-Ringer bicarbonate buffer (pH 7.4). The islets were incubated for 1 h at 37° C. in Krebs-Ringer buffered solution supplemented with 0.6 or 6 μM FOL-014 or 100 nM GLP-1 or left unsupplemented for control. Immediately after incubation, the medium was removed for assays of insulin and glucagon using Mercodia's ELISA kits. The effect of FOL-014 on insulin (FIGS. 8A and B) and glucagon (FIGS. 8C and D) secretion from isolated mouse islets was measured in the presence of low glucose (2.8 mM; FIGS. 8A and C) or high glucose (16.7 mM; FIGS. 8B and D) concentrations."}, "mouse pancreatic islets": {"test_system": "mouse pancreatic islets", "test": "Insulin secretion from isolated mouse pancreatic islets (Examples 5 and 7)", "type": "cell-based", "details": "60 min", "method": "Mouse pancreatic islets were isolated from 8-week old C57BL/6J male mice (Taconic). Mice were sacrificed by an overdose of isoflurane and cervical dislocation. 3 ml of 0.9 U/ml collagenase P was injected into the pancreatic duct to inflate the pancreas. The Pancreas was then removed and collagen digested for 19 min at 37° C. The samples Were vigorously shaken to disrupt the tissue. The digest was transferred into ice cold Hank's Balanced Salt Solution (HBSS) with Ca^2+ and Mg^2+. The suspension was allowed to sit for 10 min to allow the islet to sink, and the islets were washed in fresh HBSS four times. The islets were then hand-picked and sorted according to size. Islets (n=3 per well in a 96 well plate) were pre-incubated in KRB buffer during 10 min 37° C., pH 7.4, supplemented with 10 mM HEPES, 0.1% bovine serum albumin. After pre-incubation, the buffer was changed and islets were incubated at different test conditions in new KRB buffer with 0.1% bovine serum albumin (non-treated ctrl, FOL-005 peptide, or GLP-1) for 60 min at 37° C. Immediately after incubation, an aliquot of the buffer was removed and frozen for subsequent assay of insulin.\nMouse pancreatic islets were isolated from 8-week old C57BL/6J male mice as described under example 5. The islets were then hand-picked and sorted according to size. Islets (n=5 per well in a 96 well plate) were pre-incubated in 200 μl KRB buffer during 10 min 37° C., pH 7.4, supplemented with 10 mM HEPES, 0.1% bovine serum albumin. Following pre-incubation, the buffer was changed and islets were incubated in different test conditions in new KRB buffer with 0.1% bovine serum albumin (non-treated ctrl, FOL-014 peptide, and GLP-1) for 60 min at 37° C. Immediately after incubation, an aliquot of the buffer was removed and frozen for subsequent assay of insulin."}, "INS-1 cells [1]": {"test_system": "INS-1 cells", "test": "Proliferation of INS-1 cells ([methyl-3H] thymidine incorporation)", "type": "cell-based, rat", "method": "To investigate if FOL-005 and FOL-014 could induce proliferation of β-cells we used INS-1 cells. Rat INS-1 cells were seeded in 96-well plates in RPMI medium with supplement and after 2 hours the medium was changed to RPMI without supplement. During the proliferation experiment the cells were incubated at different test conditions (FOL-005, FOL-014, coated or in solution, 48 h incubation) and during the last 20 hours of culture period the cells were pulsed with 1 μ Ci/well of [methyl-3H] thymidine. The cells were then harvested onto glass fiber filters using a FilterMate harvester. The filters were air dried, and the bound radioactivity was measured using a liquid scintillation counter. To study whether FOL-005 influenced β-cell proliferation, INS-1 cells were treated with increasing amounts of soluble FOL-005 (0.06-6 μM) during 48 hours and proliferation was measured with radiolabeled thymidine incorporation into newly synthesized DNA."}, "INS-1 β-cells": {"test_system": "INS-1 β-cells", "test": "Insulin secretion from INS-1 cells (Examples 4 and 6)", "type": "cell-based, rat", "details": "6 μM peptide", "method": "To investigate the stimulatory effect of FOL-005 on insulin secretion, INS-1 β-cells were used in the following experiments. Cells were seeded overnight in cRPMI and then washed with PBS before pre-incubation for 60 min at 37° C. in Krebs-Ringer bicarbonate buffer (KRB), pH 7.4, supplemented with 10 mM HEPES, 0.1% bovine serum albumin. After pre-incubation, the buffer was changed and the INS-1 cells were incubated at different test conditions (0 mM, 5 mM or 20 mM glucose) and stimulated with peptide FOL-005 or FOL-015 (SEQ ID NO: 158) or left untreated during 60 min at 37° C. Immediately after incubation, an aliquot of the buffer was removed and frozen for subsequent assay of insulin with an insulin radioimmunoassay kit.\nINS-1 β-cells were used to investigate the stimulatory effect of FOL-014 on insulin secretion. Cells were seeded overnight and then washed with PBS before pre-incubation for 60 min at 37° C. in Krebs-Ringer bicarbonate buffer (KRB), pH 7.4, supplemented with 10 mM HEPES, 0.1% bovine serum albumin. After pre-incubation, the buffer was changed and the INS-1 cells were incubated in new KRB buffer supplemented with 10 mM HEPES, 0.1% bovine serum albumin and stimulated with peptide FOL-014 or left untreated during 60 min at 37° C. Immediately after incubation, an aliquot of the buffer was removed and frozen for subsequent assay of insulin."}, "INS-1 cells [2]": {"test_system": "INS-1 cells", "test": "Glucotoxicity-induced apoptosis of INS-1 cells (Annexin V staining, caspase-3 activity)", "type": "cell-based, rat", "details": "20 mM glucose, 48 h, vs 20 mM glucose alone", "method": "Since glucotoxicity in pancreatic β-cells is a well-established process in type 2 diabetes we next investigated the protective effects of FOL-005 on β-cells during glucotoxic conditions. First we confirmed that 20 mM glucose induced cell apoptosis in INS cells after 48 h of exposure. High glucose (20 mM) containing RPMI medium induced more Annexin V positive cells and more caspase-3 activity in INS cells compared to cells incubated with medium containing 5 mM glucose (FIG. 2A-B). […] The rate of apoptosis in INS-1 cells was measured with either Caspase-3 Assay Kit or stained with Annexin V Apoptosis Detection Kit with 7-AAD. Caspase-3 activity was measured with fluorescence at an excitation wavelength of 380 nm and an emission wavelength of 440 nm. Caspase-3 activity was then normalized to protein concentration in each well. Measurements of\nAnnexin V stained cells were performed using a CyAn ADP flow cytometer and analyzed with Summit V4.3 software."}},
  "note": "Entries after “also recorded” stand apart in the source; their conditions may differ. Where no end group is shown, it is not given here.",
  "data": [
    {"substance": "DSIELSYGIK (MISC_FEATURE - peptide) [FOL-059]", "values": [
      {"measurement": "insulin secretion", "setting": "INS-1E cells", "result": "increased the insulin secretion as compared with cells treated with an un-supplemented high glucose buffer"}
    ]},
    {"substance": "EIDSIELSYGIK (MISC_FEATURE - peptide) [FOL-057]", "values": [
      {"measurement": "insulin secretion", "setting": "INS-1E cells", "result": "increased the insulin secretion as compared with cells treated with an un-supplemented high glucose buffer"}
    ]},
    {"substance": "GLP-1: native glucagon-like peptide-1, metabolic hormone that stimulates insulin secretion; comparator (HAEGTFTSDVSSYLEGQAAKEFIAWLVKGR; ends and bridges not checked; UniProt P01275 98-127, looked up) [reference compound]", "values": [
      {"measurement": "glucagon secretion", "setting": "isolated mouse islets; high glucose (16.7 mM)", "result": "efficiently reduced glucagon secretion"},
      {"measurement": "insulin secretion", "setting": "isolated mouse islets; high glucose (16.7 mM)", "result": "significantly increased insulin secretion"},
      {"measurement": "glucagon secretion", "setting": "isolated mouse islets; low glucose (2.8 mM)", "result": "failed to inhibit glucagon secretion in low glucose conditions"},
      {"measurement": "insulin secretion", "setting": "isolated mouse islets; low glucose (2.8 mM)", "result": "enhanced insulin secretion also in low glucose samples"},
      {"measurement": "insulin secretion", "setting": "mouse pancreatic islets; Example 5, 100 nM, vs unstimulated control islets", "result": "secreted more insulin compared to unstimulated control islets"},
      {"measurement": "insulin secretion", "setting": "mouse pancreatic islets; Example 7, 100 nM", "result": "did not affect insulin secretion; also recorded: had no effect on insulin secretion"}
    ]},
    {"substance": "IDSIELSYGIK (MISC_FEATURE - peptide) [FOL-058]", "values": [
      {"measurement": "insulin secretion", "setting": "INS-1E cells", "result": "increased the insulin secretion as compared with cells treated with an un-supplemented high glucose buffer"}
    ]},
    {"substance": "VDTYDGDISVVYGLR (MISC_FEATURE - peptide, FOL-005)", "values": [
      {"measurement": "proliferation of INS-1 cells", "setting": "INS-1 cells [1]; peptide in solution, 0.06-6 μM, 48 hours", "result": "stimulated INS-1 cell proliferation; also recorded: induced increasing proliferation of INS-1 cells"},
      {"measurement": "proliferation of INS-1 cells", "setting": "INS-1 cells [1]; wells coated with peptide and blocked with BSA, vs BSA coated control wells", "result": "stimulated proliferation compared to control; also recorded: induced more proliferation of β-cells compared to only BSA coated control"},
      {"measurement": "insulin secretion", "setting": "mouse pancreatic islets; Example 5, 6 μM, vs unstimulated control islets", "result": "secreted more insulin compared to unstimulated control islets"},
      {"measurement": "insulin secretion at 20 mM glucose compared with 5 mM glucose", "setting": "INS-1 β-cells", "result": "responded with more insulin secretion compared to FOL-005 stimulated cells incubated with 5 mM glucose"},
      {"measurement": "insulin release", "setting": "INS-1 β-cells; 5 mM or 20 mM glucose", "result": "responded with insulin secretion; also recorded: stimulated insulin release"},
      {"measurement": "insulin release", "setting": "INS-1 β-cells; non glucose containing media, 60 min, vs unstimulated control and FOL-015", "result": "secreted more insulin compared to unstimulated control cells or to cells stimulated with the FOL-015 control peptide; also recorded: increased"},
      {"measurement": "apoptotic cells (Annexin V positive)", "setting": "INS-1 cells [2]", "result": "decreased cell apoptosis; also recorded: reduced the level of apoptotic cells compared to 20 mM glucose alone"},
      {"measurement": "caspase-3 activity", "setting": "INS-1 cells [2]", "result": "decreased cell apoptosis; also recorded: diminished the rate of glucotoxicity-induced caspse-3 activity"}
    ]}
  ]
}
